System: Metabolism protein genes
Assay: DNA chip mRNA expression in yeast, metabolism protein genes (Table 7)
Assay type: cell-based, Saccharomyces cerevisiae S288C
Method: Yeast (Saccharomyces cerevisiae S288C (α SUC2mal mel gap2 CUP1)) were incubated at 25° C. on YPD medium (yeast extract 1%, polypepton 2%, glucose 2%). One of toxic chemical substances was added to the cells at logarithmic growth phase, and the cells were further incubated for two hours. Cells were cultured without any chemical substance in the same condition, and were used as control. Concentrations of the chemical substances were defined to inhibit the growth of the yeast but not lead to death.
After completion of the incubation, the culture was centrifuged to collect the cells. To the cells, sodium acetate buffer (50 mM sodium acetate, 10 mM EDTA, 1% SDS) was added, and the mixture was shaken at 65° C. for five minutes, followed by returning to room temperature, and obtaining the supernatant, of which the procedures were repeated two times. To the supernatant, ½ amount of a solution of phenol/chloroform was added, and the mixture was centrifuged to give a supernatant, which was added with an equal amount of chloroform, and the mixture was centrifuged to give a supernatant. To the supernatant, an equal amount of isopropanol containing 0.3 M sodium acetate was added, and the mixture was allowed to stand at room temperature for 30 minutes, after which the mixture was centrifuged to give a sediment of the whole RNAs. Seventy % ethanol was added to the sediment, and the mixture was again centrifuged to give a sediment, which was then dried and dissolved in water. mRNA was isolated from the whole RNAs as followings. In view of the fact that a poly A chain is attached to the 3′ terminus of mRNA, a polynucleotide having a poly T structure which was immobilized on the surface of latex beads was used to trap the mRNA, and then the mRNA was washed and eluted with spine column (Oligotex-dT30<Super>mRNA Purification Kit, Takara). Reverse transcription of the mRNA was conducted with a reverse transcriptase (Super Script II Reverse Transcriptase; catalogue No. 18064-014, GibcoBRL) using fluorescence-labeled nucleotides to give cDNAs that were introduced with Cy3-dUTP or Cy5-dUTP during the reverse transcription.
The labeled cDNAs were dissolved in TE buffer (10mM Tris-HCl/1 mM EDTA, pH8.0), and the solution was dropped on the DNA chip containing the whole genes of yeast (DNA Chip Research Inc. Japan) so that the cDNAs were hybridized on the DNA chip at 65° C. for over 12 hours. The fluoresces intensity of the DNA chip was read with a scanner, and the ratio relative to the fluorescence intensity resulting from the absence of chemical substance was estimated as the following, which is shown in Tables 1 to 9: […]

Compound: [Cl][Pb][Cl] [(4), PbCl2]
- The level of expressed mRNA in the presence of chemical substance/The level of expressed mRNA in the absence of chemical substance (yeast gene YJR155W): 2.5
- The level of expressed mRNA in the presence of chemical substance/The level of expressed mRNA in the absence of chemical substance (yeast gene YKL035W): 1.2
- level of expressed mRNA in the presence/in the absence of chemical substance (yeast gene YKL060C): 1.0
- The level of expressed mRNA in the presence of chemical substance/The level of expressed mRNA in the absence of chemical substance (yeast gene YKL091C): 2.6
- The level of expressed mRNA in the presence of chemical substance/The level of expressed mRNA in the absence of chemical substance (yeast gene YKL104C): 1.2
- level of expressed mRNA in the presence/in the absence of chemical substance (yeast gene YKL148C): 0.7
- The level of expressed mRNA in the presence of chemical substance/The level of expressed mRNA in the absence of chemical substance (yeast gene YKL152C): 0.9
- level of expressed mRNA in the presence/in the absence of chemical substance (yeast gene YKL157W): 1.3
- The level of expressed mRNA in the presence of chemical substance/The level of expressed mRNA in the absence of chemical substance (yeast gene YKL213C): 1.3
- The level of expressed mRNA in the presence of chemical substance/The level of expressed mRNA in the absence of chemical substance (yeast gene YKL215C): 0.8
- level of expressed mRNA in the presence/in the absence of chemical substance (yeast gene YKR034W): 4.7
- The level of expressed mRNA in the presence of chemical substance/The level of expressed mRNA in the absence of chemical substance (yeast gene YLL058W): 0.9
- level of expressed mRNA in the presence/in the absence of chemical substance (yeast gene YLR006C): 6.2
- level of expressed mRNA in the presence/in the absence of chemical substance (yeast gene YLR044C): 0.9
- level of expressed mRNA in the presence/in the absence of chemical substance (yeast gene YLR056W): 0.8
- level of expressed mRNA in the presence/in the absence of chemical substance (yeast gene YLR058C): 2.6
- level of expressed mRNA in the presence/in the absence of chemical substance (yeast gene YLR081W): 3.6
- level of expressed mRNA in the presence/in the absence of chemical substance (yeast gene YLR089C): 0.9
- The level of expressed mRNA in the presence of chemical substance/The level of expressed mRNA in the absence of chemical substance (yeast gene YLR180W): 1.0
- The level of expressed mRNA in the presence of chemical substance/The level of expressed mRNA in the absence of chemical substance (yeast gene YLR273C): 2.4
- level of expressed mRNA in the presence/in the absence of chemical substance (yeast gene YLR284C): 1.9
- The level of expressed mRNA in the presence of chemical substance/The level of expressed mRNA in the absence of chemical substance (yeast gene YLR299W): 1.3
- The level of expressed mRNA in the presence of chemical substance/The level of expressed mRNA in the absence of chemical substance (yeast gene YLR300W): 1.0
- level of expressed mRNA in the presence/in the absence of chemical substance (yeast gene YLR304C): 0.7
- The level of expressed mRNA in the presence of chemical substance/The level of expressed mRNA in the absence of chemical substance (yeast gene YLR307W): 3.3
- The level of expressed mRNA in the presence of chemical substance/The level of expressed mRNA in the absence of chemical substance (yeast gene YLR348C): 1.2
- level of expressed mRNA in the presence/in the absence of chemical substance (yeast gene YLR354C): 1.5
- level of expressed mRNA in the presence/in the absence of chemical substance (yeast gene YLR372W): 0.8
- level of expressed mRNA in the presence/in the absence of chemical substance (yeast gene YML022W): 1.1
- The level of expressed mRNA in the presence of chemical substance/The level of expressed mRNA in the absence of chemical substance (yeast gene YML054C): 3.4
- The level of expressed mRNA in the presence of chemical substance/The level of expressed mRNA in the absence of chemical substance (yeast gene YML070W): 1.9
- The level of expressed mRNA in the presence of chemical substance/The level of expressed mRNA in the absence of chemical substance (yeast gene YML100W): 1.4
- The level of expressed mRNA in the presence of chemical substance/The level of expressed mRNA in the absence of chemical substance (yeast gene YMR008C): 1.0
- level of expressed mRNA in the presence/in the absence of chemical substance (yeast gene YMR011W): 5.5
- level of expressed mRNA in the presence/in the absence of chemical substance (yeast gene YMR015C): 0.9
- The level of expressed mRNA in the presence of chemical substance/The level of expressed mRNA in the absence of chemical substance (yeast gene YMR020W): 1.7
- level of expressed mRNA in the presence/in the absence of chemical substance (yeast gene YMR083W): 1.1
- The level of expressed mRNA in the presence of chemical substance/The level of expressed mRNA in the absence of chemical substance (yeast gene YMR105C): 4.2
- The level of expressed mRNA in the presence of chemical substance/The level of expressed mRNA in the absence of chemical substance (yeast gene YMR189W): 2.8
- level of expressed mRNA in the presence/in the absence of chemical substance (yeast gene YMR205C): 0.8
- level of expressed mRNA in the presence/in the absence of chemical substance (yeast gene YMR261C): 0.8
- The level of expressed mRNA in the presence of chemical substance/The level of expressed mRNA in the absence of chemical substance (yeast gene YMR271C): 2.0
- The level of expressed mRNA in the presence of chemical substance/The level of expressed mRNA in the absence of chemical substance (yeast gene YMR296C): 2.6
- level of expressed mRNA in the presence/in the absence of chemical substance (yeast gene YMR323W): 1.1
- The level of expressed mRNA in the presence of chemical substance/The level of expressed mRNA in the absence of chemical substance (yeast gene YNL012W): 0.8
- level of expressed mRNA in the presence/in the absence of chemical substance (yeast gene YNL025C): 12.8
- The level of expressed mRNA in the presence of chemical substance/The level of expressed mRNA in the absence of chemical substance (yeast gene YNL045W): 1.3
- The level of expressed mRNA in the presence of chemical substance/The level of expressed mRNA in the absence of chemical substance (yeast gene YNL104C): 0.9
- The level of expressed mRNA in the presence of chemical substance/The level of expressed mRNA in the absence of chemical substance (yeast gene YNL106C): 1.5
- The level of expressed mRNA in the presence of chemical substance/The level of expressed mRNA in the absence of chemical substance (yeast gene YNL169C): 1.2
- level of expressed mRNA in the presence/in the absence of chemical substance (yeast gene YNL192W): 1.6
- The level of expressed mRNA in the presence of chemical substance/The level of expressed mRNA in the absence of chemical substance (yeast gene YNL231C): 0.5
- The level of expressed mRNA in the presence of chemical substance/The level of expressed mRNA in the absence of chemical substance (yeast gene YNL322C): 0.8
- The level of expressed mRNA in the presence of chemical substance/The level of expressed mRNA in the absence of chemical substance (yeast gene YNL331C): 1.0
- The level of expressed mRNA in the presence of chemical substance/The level of expressed mRNA in the absence of chemical substance (yeast gene YNL332W): 2.0
- The level of expressed mRNA in the presence of chemical substance/The level of expressed mRNA in the absence of chemical substance (yeast gene YNR019W): 1.2
- The level of expressed mRNA in the presence of chemical substance/The level of expressed mRNA in the absence of chemical substance (yeast gene YNR033W): 1.0
- The level of expressed mRNA in the presence of chemical substance/The level of expressed mRNA in the absence of chemical substance (yeast gene YNR059W): 1.4
- The level of expressed mRNA in the presence of chemical substance/The level of expressed mRNA in the absence of chemical substance (yeast gene YOL058W): 0.9
- level of expressed mRNA in the presence/in the absence of chemical substance (yeast gene YOL086C): 1.1
- level of expressed mRNA in the presence/in the absence of chemical substance (yeast gene YOL108C): 1.9
- level of expressed mRNA in the presence/in the absence of chemical substance (yeast gene YOL116W): 2.8
- The level of expressed mRNA in the presence of chemical substance/The level of expressed mRNA in the absence of chemical substance (yeast gene YOL126C): 1.6
- The level of expressed mRNA in the presence of chemical substance/The level of expressed mRNA in the absence of chemical substance (yeast gene YOL153C): 3.9
- level of expressed mRNA in the presence/in the absence of chemical substance (yeast gene YOL156W): 1.1
- The level of expressed mRNA in the presence of chemical substance/The level of expressed mRNA in the absence of chemical substance (yeast gene YOL165C): 0.9
- level of expressed mRNA in the presence/in the absence of chemical substance (yeast gene YOR002W): 0.9
- level of expressed mRNA in the presence/in the absence of chemical substance (yeast gene YOR085W): 1.0
- The level of expressed mRNA in the presence of chemical substance/The level of expressed mRNA in the absence of chemical substance (yeast gene YOR099W): 1.3
- level of expressed mRNA in the presence/in the absence of chemical substance (yeast gene YOR103C): 1.8
- level of expressed mRNA in the presence/in the absence of chemical substance (yeast gene YOR108W): 0.6
- level of expressed mRNA in the presence/in the absence of chemical substance (yeast gene YOR128C): 2.1
- The level of expressed mRNA in the presence of chemical substance/The level of expressed mRNA in the absence of chemical substance (yeast gene YOR130C): 1.0
- level of expressed mRNA in the presence/in the absence of chemical substance (yeast gene YOR142W): 1.0
- level of expressed mRNA in the presence/in the absence of chemical substance (yeast gene YOR176W): 0.9
- level of expressed mRNA in the presence/in the absence of chemical substance (yeast gene YOR178C): 2.3
- level of expressed mRNA in the presence/in the absence of chemical substance (yeast gene YOR251C): 1.8
- The level of expressed mRNA in the presence of chemical substance/The level of expressed mRNA in the absence of chemical substance (yeast gene YOR336W): 1.0
- The level of expressed mRNA in the presence of chemical substance/The level of expressed mRNA in the absence of chemical substance (yeast gene YOR347C): 2.2
- level of expressed mRNA in the presence/in the absence of chemical substance (yeast gene YOR348C): 2.0
- The level of expressed mRNA in the presence of chemical substance/The level of expressed mRNA in the absence of chemical substance (yeast gene YPL017C): 1.0
- level of expressed mRNA in the presence/in the absence of chemical substance (yeast gene YPL028W): 0.9
- level of expressed mRNA in the presence/in the absence of chemical substance (yeast gene YPL057C): 3.1
- level of expressed mRNA in the presence/in the absence of chemical substance (yeast gene YPL135W): 1.2
- level of expressed mRNA in the presence/in the absence of chemical substance (yeast gene YPL148C): 2.3
- The level of expressed mRNA in the presence of chemical substance/The level of expressed mRNA in the absence of chemical substance (yeast gene YPR026W): 1.3
- level of expressed mRNA in the presence/in the absence of chemical substance (yeast gene YPR113W): 1.3
- level of expressed mRNA in the presence/in the absence of chemical substance (yeast gene YPR165W): 1.0
- The level of expressed mRNA in the presence of chemical substance/The level of expressed mRNA in the absence of chemical substance (yeast gene YPR167C): 0.8
- level of expressed mRNA in the presence/in the absence of chemical substance (yeast gene YPR183W): 0.8
